Assay results from US5128244A, “Assay for dioxins” (Wisconsin Alumni Research Foundation, priority 1989, dated 1992).

What was measured:
[1] = biological target: T1, Ah receptor (Mus musculus, UniProt P30561); assay: Competitive binding assay of TCDD against [125I] radioligand for Ah receptor; parameters: species or system C57BL/6J mice
T1 construct: full-length receptor (C57BL/6J carries Ahr b-1 allele)
T1 sequence (P30561 10-848): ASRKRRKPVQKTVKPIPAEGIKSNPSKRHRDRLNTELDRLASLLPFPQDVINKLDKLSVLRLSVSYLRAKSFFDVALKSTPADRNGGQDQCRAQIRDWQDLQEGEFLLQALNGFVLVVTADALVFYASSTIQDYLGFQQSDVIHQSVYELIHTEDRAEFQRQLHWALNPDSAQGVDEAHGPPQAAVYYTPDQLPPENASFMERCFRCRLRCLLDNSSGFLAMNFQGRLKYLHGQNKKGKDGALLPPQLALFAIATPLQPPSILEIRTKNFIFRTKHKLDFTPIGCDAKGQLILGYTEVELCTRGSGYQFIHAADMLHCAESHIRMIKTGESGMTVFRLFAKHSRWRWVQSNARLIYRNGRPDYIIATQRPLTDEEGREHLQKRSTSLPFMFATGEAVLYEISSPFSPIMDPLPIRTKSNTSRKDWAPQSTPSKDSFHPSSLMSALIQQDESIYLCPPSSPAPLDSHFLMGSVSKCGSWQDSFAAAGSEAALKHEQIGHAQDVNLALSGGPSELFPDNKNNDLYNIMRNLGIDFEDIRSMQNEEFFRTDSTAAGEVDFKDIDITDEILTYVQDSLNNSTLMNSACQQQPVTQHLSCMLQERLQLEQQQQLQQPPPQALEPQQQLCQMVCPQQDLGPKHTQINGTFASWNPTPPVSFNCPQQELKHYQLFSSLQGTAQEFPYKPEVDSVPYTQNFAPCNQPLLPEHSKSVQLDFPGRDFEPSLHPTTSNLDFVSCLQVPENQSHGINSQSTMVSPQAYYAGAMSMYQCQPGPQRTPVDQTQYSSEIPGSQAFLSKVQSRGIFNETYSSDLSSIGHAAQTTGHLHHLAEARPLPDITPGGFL
Experimental: C57BL/6J mice were purchased from The Jackson Laboratory, Bar Harbor, Me., and bred in our laboratory. See generally A. Poland et al., 261 J. Biol. Chem. 6352-65 (May 15, 1986) (not prior art). One-hundred adult male and female mice were killed by cervical dislocation, their livers removed, rinsed with ice cold KCl (150 mM), homogenized in 9 vol of MSSENG buffer, and centrifuged at 10,000 xg for 20 min at 4° C. The post-mitochondrial supernatant was carefully removed to avoid contamination by the surface lipid layer, and subjected to centrifugation at 105,000 x g. The supernatant (approx. 10 mg protein/ml) was separated from surface lipids and the microsomal pellet, and stored at -80° C. until processed further.
The frozen cytosolic fraction was thawed, and placed in an ice bath with slow stirring. A saturated solution of ammonium sulfate in MEN buffer was added to the cytosolic preparation, to a final concentration of 40%, over a period of 30 min, and stirred for an additional 30 min. The solution was centrifuged at 10,000 x g for 20 min, the supernatant fraction removed, slowly brought to an ammonium sulfate concentration of 55%, stirred for an additional 30 min, centrifuged at 10,000xg, and the supernatant discarded. The 40-55% ammonium sulfate precipitate was resuspended in 55% ammonium sulfate in MN, and aliquots equivalent to 0.5 g wet weight of liver (15 mg protein) were placed in 12×75 mm borosilicate tubes (VWR Scientific, San Francisco, Calif.), and spun at 5000xg. […]
The assay was terminated by the addition of a 0.5 ml of suspension of charcoal/gelatin (3%/0.3%) in MN buffer with vigorous stirring on a vortex mixer for 3 sec., and incubated for 10 min at 4° C. […] A one ml aliquot of the supernatant fraction of each tube was transferred to 12×75 […] polypropylene tubes (VWR Scientific, San Francisco, CA), and the Ah bound radioligand quantified in a MINAXI Series-5000 gamma scintillation counter (United Technologies/Packard Instrument Co., Downer Grove, Ill.). […]

[2] = biological target: T1, Ah receptor; assay: Radioligand stock solution aged 120 days, tested in the Ah receptor binding assay; parameters: species or system C57BL/6J mice; conditions: stock solution of radioligand 120 days after its synthesis
Text: [^125 I]decays to tellurium with a half-life of 60 days. Thus, radiodecay could produce unlabelled 2,3-dibromodibenzo-p-dioxin in the radioligand stock solution. We tested whether radioligand decay products might compete for receptor binding and diminish radioligand binding.

Structure (SMILES)	minimal detectable amount of TCDD ([1]; 1 ml assay) [pg]	minimal detectable concentration of TCDD ([1]; 1 ml assay, statistical analysis of standard curve of specifically bound radioligand v. log concentration of competing TCDD) [pM]	minimal detectable amount of TCDD ([1]; total assay volume reduced to 0.25 ml) [pg]	deviation in the quality control parameters compared to freshly prepared radioligand [2]
Clc1cc2c(cc1Cl)Oc1cc(Cl)c(Cl)cc1O2 [TCDD, 2,3,7,8-tetrachloro-dibenzo-p-dioxin]	3.2	10	0.8	
Brc1cc2c(cc1Br)Oc1cc([125I])ccc1O2 [radioligand, [^125 I]-2-iodo-7,8-dibromo-dibenzo-p-dioxin]				no significant deviation
